Legend:
[1] = system: rat model with Alzheimer's disease; assay: Channel-type water maze test, learning and memory of rat model with Alzheimer's disease; format: in vivo, Wistar rats; conditions: AD model rats
Protocol: Water maze pre-training is performed after feeding for 1 week under the stable condition of laboratory, 60 rats with similar body weights and good flexibility are selected, and are divided into 6 groups randomly, a normal control group, a sham operated control group, a model control group, and high-dose, medium-dose and low-dose ginsenoside Rg3 groups (10, 5, 2.5 mg/kg/d), wherein each group has 10 animals.
The molding method applying intraperitoneal injection of 0.96% D-galactose prepared by normal saline is applied to rats to make model rat, 5 mL/kg, once daily for 6 continuous weeks. The rat of sham operated control group are injected with equivalent normal saline. The rat groups of the model control group and high-dose, medium-dose and low-dose ginsenoside Rg3 groups are intracranially injected with IBO starting from the 43th day, and each side is slowly injected with 1 μL of IBO, the sham operated group's rats are injected with equivalent normal saline in the same encephalic region (for 4 continuous weeks). The normal control group's rat are without any processing and eat and drink normally. The rats of high-dose, medium-dose and low-dose ginsenoside Rg3 groups are administered intragastrically with ginsenoside Rg3 oral emulsion daily while molding, and are administered for 4 w (weeks) after molding.
The changes of animal behavioristics in each group are tested by channel-type water maze test, and the learning and memory abilities of rats are evaluated by number of entering blind ends and the time needed to reach the terminal. All test results are expressed in mean±standard deviation, and the intergroup difference is subjected to variance analysis by adopting SPSS10.0 statistical package.

[2] = system: intracerebral cholinergic nerve system of rat model with Alzheimer's disease; assay: AChE positive nerve fiber density of cortex and hippocampal formation, rat model with Alzheimer's disease (D-galactose + IBO); format: in vivo, Wistar rats; conditions: AD model rats, 6 weeks; for N Frontal lobe AchE positive nerve fiber density: Rg3 lotion (embodiment 7) on both sides of nose; for N Entorhinal cortex AchE positive nerve fiber density / N Occipital lobe AchE positive nerve fiber density / Parietal lobe AchE positive nerve fiber density / N Stratum lacunosum-moleculare AchE positive nerve fiber density / N Stratum moleculare of dentate gyrus AchE positive nerve fiber density / N Stratum oriens AchE positive nerve fiber density / N Stratum radiatum AchE positive nerve fiber density: Rg3 lotion topical; for N Stratum lacunosum-moleculare AchE positive nerve fiber density / N Stratum moleculare of dentate gyrus AchE positive nerve fiber density / N Stratum oriens AchE positive nerve fiber density / N Stratum radiatum AchE positive nerve fiber density: hippocampal formation
Excerpt: 60 Wistar rats each of which having the body weight of 300-500 g are randomly divided into 6 groups, with 10 in each group, and the groups are named a preliminary elder normal control group, a preliminary elder AD model group, a positive medicine Huperzine A group, and high-dose, medium-dose and low-dose of Ginsenoside Rg3 topical preparation groups according to different treatment methods, respectively. The rats are bred in separate cages, each holding 4-5 rats, with natural lighting and random drinking and feeding provided. Physiological saline is injected in the abdominal cavity and grain of each rat in the preliminary elder normal control group; Galactose intraperitoneal injection and IBO intracerebral injection are given to all rats in the preliminary elder AD model group, the positive medicine Huperzine A group, and the high-dose, medium-dose and low-dose Ginsenoside Rg3 topical preparation groups; while the rats in the Huperzine A group and the high-dose, medium-dose and low-dose of Ginsenoside Rg3 topical preparation groups are subjected to D-galactose injection for modeling, rat of each group is given Huperzine A 0.3 mg/kg/d and Ginsenoside Rg3 10, 5, 2.5 mg/kg/d respectively. Ginsenoside Rg3 is applied to both sides of the nose of each rat of Ginsenoside Rg3 topical preparation groups. All the rats are subjected to the medicines continuously for 6 weeks and then intracerebral bilateral Meynert nuclei injection is carried out. Reference is made to a rat cerebral stereotaxic atlas for Meynert nuclei localization, and localization coordinates are AP-0.8 mm, Late 2.6 mm and DV 8.2 mm During intracerebral injection, a rat is anesthetized with 3% pentobarbital sodium (30 mg/kg) and then immobilized to a cerebral stereotaxic apparatus, physiological saline dissolved IBO (injection 1 μl for each side containing 5 μg of IBO) or 1 μl normal saline is injected slowly into a Meynert nucleus, each side takes injection for 5 minutes, and needle retaining for 10 minutes, wherein all the rats are subjected to cerebral perfusion with 4% paraformaldehyde after modeling and are then immobilized for 24 hours, and the brain is put in a sucrose phosphate buffer until brain tissue blocks sink, the blocks are frozen in a incubator and serially sectioned to […] in thickness. The sections are subjected to acetycholinesterase (AChE) histochemical staining by methods recommended by Hedreen, et al. Observation is given to the frontal lobe, the parietal lobe, the occipital lobe and the entorhinal cortex (layer II) as well as parts in a hippocampal CA1 region of the hippocampal formation such as a stratum oriens, a stratum radiatum, a stratum lacunosum-moleculare and a stratum moleculare of dentate gyrus for observing their AChE positive nerve fiber densities, and the AChE positive nerve fiber densities are counted with a number of intersections of positive fibers with a standard grid by using a micrometer used for a microscope.
A significance level a is equal to 0.05.

[3] = system: patients with Alzheimer's disease; assay: Revised Hasegawa dementia scale (HDS-R) scoring of patients with Alzheimer's disease; format: in vivo, human
Protocol: Both groups take medicine for 12 continuous weeks. 2 ml of cerebrospinal fluid is collected by lumbar puncture, and is stored at −80° C., the β-amyloid protein (Aβ) content is determined by using enzyme-linked immunosorbent assay (ELISA). A revised Hasegawa dementia scale (HDS-R) is used to score, and the scores before and after treatment are compared, increasing in scores means validness, and unchanging or decreasing in scores means invalidness. The enumeration data adopts χ^2 test, the comparison of measurement data adopts t-test, all data is processed by adopting SPSS12.0 statistical software.
Analysis on the clinical therapeutic effect of the two groups.

[4] = Rg3 oral emulsion (embodiment 17) intragastric, 10 mg/kg/d
[5] = Rg3 oral emulsion intragastric, 2.5 mg/kg/d
[6] = Rg3 oral emulsion intragastric, 5 mg/kg/d
[7] = of 18 patients per group, 12 weeks

With `CC(C)=CCC[C@](C)(O)[C@H]1CC[C@]2(C)[C@@H]1[C@H](O)C[C@@H]1[C@@]3(C)CC[C@H](O[C@@H]4O[C@H](CO)[C@@H](O)[C@H](O)[C@H]4O[C@@H]4O[C@H](CO)[C@@H](O)[C@H](O)[C@H]4O)C(C)(C)[C@@H]3CC[C@]12C` [Ginsenoside Rg3, 20(R)-ginsenoside Rg3] the Error times [1, 4] was 1.01 ± 0.41 time, the Swimming out time [1, 4] was 12.26 ± 3.26 s and the Error times [1, 5] was 1.82 ± 0.43 time. The Swimming out time [1, 5] was 32.26 ± 3.21 s, the Error times [1, 6] was 1.10 ± 0.44 time and the Swimming out time [1, 6] was 19.26 ± 3.23 s. The “N Frontal lobe AchE positive nerve fiber density” value ([2]; 2.5 mg/kg/d) was 122.7 ± 18.6^Δ 10^2 · mm^−2, the “N Frontal lobe AchE positive nerve fiber density” value ([2]; 5 mg/kg/d) was 130.7 ± 20.8^Δ 10^2 · mm^−2 and the “N Frontal lobe AchE positive nerve fiber density” value ([2]; 10 mg/kg/d) was 143.7 ± 22.1^Δ 10^2 · mm^−2. The “N Entorhinal cortex AchE positive nerve fiber density” value ([2]; 2.5 mg/kg/d) was 130.2 ± 15.6 10^2 · mm^−2, the “N Occipital lobe AchE positive nerve fiber density” value ([2]; 2.5 mg/kg/d) was 145.2 ± 9.2^ΔΔ** 10^2 · mm^−2 and the “Parietal lobe AchE positive nerve fiber density” value ([2]; 2.5 mg/kg/d) was 162.9 ± 22.0^#** 10^2 · mm^−2. For the same compound, the “N Entorhinal cortex AchE positive nerve fiber density” value ([2]; 5 mg/kg/d) was 142.6 ± 11.9 10^2 · mm^−2, the “N Occipital lobe AchE positive nerve fiber density” value ([2]; 5 mg/kg/d) was 160.2 ± 10.2^ΔΔ** 10^2 · mm^−2 and the “Parietal lobe AchE positive nerve fiber density” value ([2]; 5 mg/kg/d) was 170.9 ± 21.2^#** 10^2 · mm^−2. The “N Entorhinal cortex AchE positive nerve fiber density” value ([2]; 10 mg/kg/d) was 161.1 ± 18.3^ΔΔ**° 10^2 · mm^−2, the “N Occipital lobe AchE positive nerve fiber density” value ([2]; 10 mg/kg/d) was 167.2 ± 12.9^ΔΔ**° 10^2 · mm^−2 and the “Parietal lobe AchE positive nerve fiber density” value ([2]; 10 mg/kg/d) was 183.9 ± 24.9^#**° 10^2 · mm^−2. The “N Stratum lacunosum-moleculare AchE positive nerve fiber density” value ([2]; 2.5 mg/kg/d) was 77.2 ± 9.1^ΔΔ** 10^2 · mm^−2, the “N Stratum moleculare of dentate gyrus AchE positive nerve fiber density” value (shortened to “N Stratum moleculare”) ([2]; 2.5 mg/kg/d) was 119.8 ± 12.4 10^2 · mm^−2 and the “N Stratum oriens AchE positive nerve fiber density” value ([2]; 2.5 mg/kg/d) was 140.1 ± 20.5^Δ 10^2 · mm^−2. For the same compound, the “N Stratum radiatum AchE positive nerve fiber density” value ([2]; 2.5 mg/kg/d) was 122.4 ± 14.4^#** 10^2 · mm^−2, the “N Stratum lacunosum-moleculare AchE positive nerve fiber density” value ([2]; 5 mg/kg/d) was 84.2 ± 10.9^ΔΔ** 10^2 · mm^−2 and the “N Stratum moleculare” value ([2]; 5 mg/kg/d) was 131.5 ± 14.7 10^2 · mm^−2. For the same compound, the “N Stratum oriens AchE positive nerve fiber density” value ([2]; 5 mg/kg/d) was 153.0 ± 22.1^Δ 10^2 · mm^−2, the “N Stratum radiatum AchE positive nerve fiber density” value ([2]; 5 mg/kg/d) was 135.1 ± 23.9^#** 10^2 · mm^−2 and the “N Stratum lacunosum-moleculare AchE positive nerve fiber density” value ([2]; 10 mg/kg/d) was 99.2 ± 17.3^Δ 10^2 · mm^−2. For the same compound, the “N Stratum moleculare” value ([2]; 10 mg/kg/d) was 142.7 ± 11.9 10^2 · mm^−2, the “N Stratum oriens AchE positive nerve fiber density” value ([2]; 10 mg/kg/d) was 171.1 ± 16.9^Δ 10^2 · mm^−2 and the “N Stratum radiatum AchE positive nerve fiber density” value ([2]; 10 mg/kg/d) was 143.2 ± 20.5^ΔΔ 10^2 · mm^−2. The “effective rate (patients increased in HDS-R scores)” value ([3]; 18 AD patients per group, Rg3 oral liquid 10 mg/d or donepezil 5 mg/d, 12 weeks) was 77.8%, the “Scores of clinical symptom (HDS-R), post treatment” value ([3]; AD inpatients, n = 18, Rg3 oral liquid 10 mg/d or donepezil 5 mg/d orally, 12 weeks) was 18.7 ± 8.1^#Δ and the “Scores of clinical symptom (HDS-R), before treatment” value ([3]; AD inpatients, n = 18 per group, baseline) was 12.3 ± 5.2. The “number of patients constant in scores” value [3, 7] was 3, the “number of patients decreased in scores” value [3, 7] was 1 and the “number of patients increased in scores of clinical symptom” value [3, 7] was 14.

Source: US10238676B2, “Application of ginsenoside RG3 in preparing medicine for preventing and/or treating dementia, and medicine for treating dementia” (priority 2013, dated 2019)
